Assay results taken from patent US12630565B2, “DNA-dependent protein kinase inhibitor” (DIZAL (JIANGSU) PHARMACEUTICAL CO., LTD., priority 2019, dated 2026).

Columns and labels:
Rat hepatocyte = experiment: Metabolic stability assay (rat hepatocyte Clint); format: in vitro ADME; settings: 1 μM compound, cryopreserved hepatocytes 1 million cells per mL
Procedure, shortened: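 Compound at 1 μM incubated with cryopreserved rat hepatocytes, 1 million cells/mL, sampled 0–120 min with acetonitrile quench and LC-MS/MS quantitation. CLint (μL/min/E6) derived from elimination rate constant and half-life of parent disappearance, scaled by cell concentration.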

[1] = target: Full length human DNAPK protein (Homo sapiens, UniProt P78527); experiment: DNA-PK enzymatic assay (TR-FRET); format: biochemical; settings: 10 μM ATP, 1.6 μM peptide substrate
[2] = Brain-blood-barrier penetration assay (short oral absorption model, Kp,uu); format: in vivo; settings: male Han Wistar rats, oral 10 mg/kg in 1% methylcellulose, AUC(brain)/AUC(plasma)×(fu,brain/fu.plasma); for Kp uu: male, Han Wistar, rat, brain and plasma, po, 10 mg/kg
Method: It is believed that Kp,uu, the relationship between concentrations of unbound drug in brain and in plasma, is the key to prediction of CNS action and should be the main parameter measured and optimized for in drug discovery (Di L et al., Journal of Medicinal Chemistry [2013], 56: 2-12).
In vitro plasma and brain binding assay was carried out by using equilibrium dialysis method with semi-permeable membrane. Plasma and diluted brain homogenate (1:4 with DPBS pH7.4) were spiked with 5 μM test compound (in triplicate) and dialyzed against equal volume of 150 μL 100 mM PBS buffer (pH7.4) at 37° C. for 18 hours in a slowly rotated plate. At the end of incubation, a 50 μL aliquot from the receiver side and a 5 μL from the donor chamber were taken. The 5 μL sample was further diluted with 45 μL of blank plasma or brain homogenate. Paired samples were matrix-matched with either buffer or blank plasma/brain homogenate and mixed for 2 min, and then precipitated with 150 μL cold acetonitrile with 100 ng/mL tolbutamide as internal standard. After centrifuging at 4000 rpm for 20 min, supernatant was diluted with 0.1% formic acid aqueous solution and analyzed for LC/MS/MS (API 4000, Applied Biosystems, Foster City). Unbound fraction (fu) of test compound in the brain homogenate and diluted plasma were calculated by the ratio of the buffer side response to the brain homogenate/plasma side response, and unbound fraction (fu,pl and fu,br) of test compound in non-diluted plasma and tissue were calculated from measured fu in homogenate and plasma with the following equation: fu,bl (fu,br)=(1/D)/[(1/fu−1)+1/D)]. D is dilution factor.
A Short oral absorption (SOA) model is an in-vivo screening model to identify brain penetration of a compound. Six male Han Wistar rats purchased from Beijing Vital River were orally dosed with the compound at 10 mg/kg in 1% methylcellulose At 0.5, 1, 2, 4, 7 and 16 hour post-dose, cerebral spinal fluid (CSF) was collected from cisterna magna. Plasma samples will be processed for plasma by centrifugation at approximately 4° C., 3,000 g within half an hour of collection. Plasma samples will be removed to a labeled tube and stored at −80 degree until analysis. Brain tissue was harvested and homogenized in 3× volume of 100 mM phosphate buffered saline (pH7.4). All samples were stored at ˜−70° C. prior to LC/MS/MS analysis.
Standards were prepared by spiking blank plasma, brain homogenate and artificial CSF covering 0.5 to 500 ng/mL. Homogenized brain tissue along with plasma samples were precipitated by adding 3-fold volume of cold acetonitrile containing internal standard (40 ng/mL Dexamethasone and 40 ng/mL Diclofenac), and 10 μL of CSF samples were precipitated with 100 μL of cold acetonitrile containing internal standard. After 2 min vortex and 5 min centrifugation at 14,000 rpm, supernatant was analyzed by LC/MS/MS (API 4000, Applied Biosystems, Foster City). Two sets of standard curves were run at the beginning and end of each batch from plasma sample analysis. For brain and CSF samples, one standard curve was analyzed along with test samples.
Total brain levels, expressed as brain/plasma ratio (Kp) were measured by AUCbrain/AUCplasma in rodents after oral administration. Free fraction of test compound in biological matrix was determined by in vitro plasma and brain binding assay. Kp,uu was calculated by the following equation: Kp,uu=AUC (brain)/AUC (plasma)×(fu,brain/fu.plasma).

[3] = test system: MDCKII-MDR1-BCRP cell monolayers; experiment: MDCKII-MDR1-BCRP efflux assay; format: in vitro ADME; settings: 5 μM compound, 120 min, HBSS pH 7.4
Procedure, shortened: (§1)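 Bidirectional (A-B, B-A) transport of 5 μM compound across MDCKII-MDR1-BCRP monolayers in HBSS, 25 mM HEPES pH 7.4, ~37° C. for 120 min, triplicate; donor and receiver concentrations measured, monolayer integrity checked with Lucifer yellow. Papp and efflux ratio calculated.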

[4] = Metabolic stability assay (human microsomal Clint); format: in vitro ADME; settings: 1 mg/mL microsomes, 1 mM NADPH, 37° C.; for Human liver microsomal CLint: 1 μM compound
Procedure, shortened: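 Compound (1 μM) incubated at 37 °C with pooled human liver microsomes (1 mg/mL) and 1 mM NADPH in 100 mM phosphate, pH 7.4. Samples quenched in acetonitrile at 0–30 min and analysed by LC-MS/MS for parent loss. CLint reported in μl/min/mg.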

MDR1, BCRP = experiment: MDCKII-MDR1-BCRP efflux assay; format: in vitro ADME; settings: dog, pH 7.4, 5 μM compound, HBSS pH 7.4, read-out: MDCK-Mdr1-BCRP efflux ratio
Procedure, shortened: as §1

Rat hepatocyte CLint (μl/min/10^−6 cells) (Rat hepatocyte) | IC50 [1] | Kp uu [2] | MDCK-Mdr1-BCRP efflux ratio [3] | Human liver microsomal CLint [4] | Kp, uu (brain) [2] | efflux ratio at 120 min, 5 μM (MDR1, BCRP) | microsomal CLint at 1 μM ([4]; human, pooled human liver microsomes, pH 7.4, 1 μM compound) | SMILES
17.4 μl/min/10^−6 cells | 1.8 nM | 0.25 | 1.7 | 64.8 µL/min/mg |  |  |  | COC1CCC(n2nc(C)c3cnc(Nc4cn5ncnc5cc4C)nc32)C1 (single isomer, unassigned) [Example 110, 1-(3-methoxycyclopentyl)-3-methyl-N-(7-methyl-[1,2,4]triazolo[1,5-a]pyridin-6-yl)-1H-pyrazolo[3,4-d]pyrimidin-6-amine]
17.0 μl/min/10^−6 cells | 1.1 nM |  | 1.8 | 68.5 µL/min/mg | 0.36 |  |  | COC1CCC(n2nc(C)c3cnc(Nc4cn5ncnc5cc4C)nc32)C1 (single isomer, unassigned) [Example 111, 1-(3-methoxycyclopentyl)-3-methyl-N-(7-methyl-[1,2,4]triazolo[1,5-a]pyridin-6-yl)-1H-pyrazolo[3,4-d]pyrimidin-6-amine]
17.6 μl/min/10^−6 cells | 0.9 nM | 0.19 |  |  |  | 2.1 | 68.9 µL/min/mg | Cc1cc2ncnn2cc1Nc1ncc2c(C)nn([C@H]3C[C@H]4CC[C@@H](C3)O4)c2n1 [Example 106, 1-((1R,3r,5S)-8-oxabicyclo[3.2.1]octan-3-yl)-3-methyl-N-(7-methyl-[1,2,4]triazolo[1,5-a]pyridin-6-yl)-1H-pyrazolo[3,4-d]pyrimidin-6-amine]
12.7 μl/min/10^−6 cells | 1.2 nM | 0.24 | 3.5 | 31.4 µL/min/mg |  |  |  | Cc1cc2ncnn2cc1Nc1ncc2c(C)nn(C3CCCOCC3)c2n1 (single isomer, unassigned) [Example 34, 3-methyl-N-(7-methyl-[1,2,4]triazolo[1,5-a]pyridin-6-yl)-1-(oxepan-4-yl)-1H-pyrazolo[3,4-d]pyrimidin-6-amine]
